Laboratory results: the NIST ThermoML archive (doi:10.1021/je800224k)

Conditions: Liquid

CCCCCCn1cc[n+](C)c1.F[B-](F)(F)F [1-hexyl-3-methylimidazolium tetrafluoroborate]
Conditions	mass density [kg/m3]
293.15 K, 101.33 kPa, Vibrating tube method	1148.5
313.15 K, 101.33 kPa, Vibrating tube method	1134.7
313.3 K, 10000 kPa, Bellows volumetry	1139
313.3 K, 20000 kPa, Bellows volumetry	1144
313.3 K, 30000 kPa, Bellows volumetry	1149
313.3 K, 40000 kPa, Bellows volumetry	1154
313.3 K, 50000 kPa, Bellows volumetry	1158
313.3 K, 60000 kPa, Bellows volumetry	1162
313.3 K, 70000 kPa, Bellows volumetry	1167
313.3 K, 80000 kPa, Bellows volumetry	1171
313.3 K, 90000 kPa, Bellows volumetry	1174
313.3 K, 100000 kPa, Bellows volumetry	1178
313.3 K, 110000 kPa, Bellows volumetry	1182
313.3 K, 120000 kPa, Bellows volumetry	1186
313.3 K, 130000 kPa, Bellows volumetry	1189
313.3 K, 140000 kPa, Bellows volumetry	1193
313.3 K, 150000 kPa, Bellows volumetry	1196
313.3 K, 160000 kPa, Bellows volumetry	1199
313.3 K, 170000 kPa, Bellows volumetry	1202
313.3 K, 180000 kPa, Bellows volumetry	1206
313.3 K, 190000 kPa, Bellows volumetry	1209
313.3 K, 200000 kPa, Bellows volumetry	1212
332.5 K, 10000 kPa, Bellows volumetry	1126
332.5 K, 20000 kPa, Bellows volumetry	1131
332.5 K, 30000 kPa, Bellows volumetry	1136
332.5 K, 40000 kPa, Bellows volumetry	1141
332.5 K, 50000 kPa, Bellows volumetry	1146
332.5 K, 60000 kPa, Bellows volumetry	1150
332.5 K, 70000 kPa, Bellows volumetry	1154
332.5 K, 80000 kPa, Bellows volumetry	1159
332.5 K, 90000 kPa, Bellows volumetry	1163
332.5 K, 100000 kPa, Bellows volumetry	1167
332.5 K, 110000 kPa, Bellows volumetry	1170
332.5 K, 120000 kPa, Bellows volumetry	1174
332.5 K, 130000 kPa, Bellows volumetry	1178
332.5 K, 140000 kPa, Bellows volumetry	1181
332.5 K, 150000 kPa, Bellows volumetry	1185
332.5 K, 160000 kPa, Bellows volumetry	1188
332.5 K, 170000 kPa, Bellows volumetry	1192
332.5 K, 180000 kPa, Bellows volumetry	1195
332.5 K, 190000 kPa, Bellows volumetry	1198
332.5 K, 200000 kPa, Bellows volumetry	1201
333.15 K, 101.33 kPa, Vibrating tube method	1121
352.6 K, 10000 kPa, Bellows volumetry	1113
352.6 K, 20000 kPa, Bellows volumetry	1118
352.6 K, 30000 kPa, Bellows volumetry	1123
352.6 K, 40000 kPa, Bellows volumetry	1128
352.6 K, 50000 kPa, Bellows volumetry	1133
352.6 K, 60000 kPa, Bellows volumetry	1138
352.6 K, 70000 kPa, Bellows volumetry	1142
352.6 K, 80000 kPa, Bellows volumetry	1147
352.6 K, 90000 kPa, Bellows volumetry	1151
352.6 K, 100000 kPa, Bellows volumetry	1155
352.6 K, 110000 kPa, Bellows volumetry	1159
352.6 K, 120000 kPa, Bellows volumetry	1163
352.6 K, 130000 kPa, Bellows volumetry	1167
352.6 K, 140000 kPa, Bellows volumetry	1170
352.6 K, 150000 kPa, Bellows volumetry	1174
352.6 K, 160000 kPa, Bellows volumetry	1177
352.6 K, 170000 kPa, Bellows volumetry	1181
352.6 K, 180000 kPa, Bellows volumetry	1184
352.6 K, 190000 kPa, Bellows volumetry	1187
352.6 K, 200000 kPa, Bellows volumetry	1191
353.15 K, 101.33 kPa, Vibrating tube method	1107.6
372.7 K, 10000 kPa, Bellows volumetry	1099
372.7 K, 20000 kPa, Bellows volumetry	1105
372.7 K, 30000 kPa, Bellows volumetry	1111
372.7 K, 40000 kPa, Bellows volumetry	1116
372.7 K, 50000 kPa, Bellows volumetry	1121
372.7 K, 60000 kPa, Bellows volumetry	1126
372.7 K, 70000 kPa, Bellows volumetry	1131
372.7 K, 80000 kPa, Bellows volumetry	1135
372.7 K, 90000 kPa, Bellows volumetry	1139
372.7 K, 100000 kPa, Bellows volumetry	1144
372.7 K, 110000 kPa, Bellows volumetry	1148
372.7 K, 120000 kPa, Bellows volumetry	1152
372.7 K, 130000 kPa, Bellows volumetry	1156
372.7 K, 140000 kPa, Bellows volumetry	1160
372.7 K, 150000 kPa, Bellows volumetry	1163
372.7 K, 160000 kPa, Bellows volumetry	1167
372.7 K, 170000 kPa, Bellows volumetry	1170
372.7 K, 180000 kPa, Bellows volumetry	1174
372.7 K, 190000 kPa, Bellows volumetry	1177
372.7 K, 200000 kPa, Bellows volumetry	1180
393 K, 10000 kPa, Bellows volumetry	1087
393 K, 20000 kPa, Bellows volumetry	1093
393 K, 30000 kPa, Bellows volumetry	1098
393 K, 40000 kPa, Bellows volumetry	1104
393 K, 50000 kPa, Bellows volumetry	1109
393 K, 60000 kPa, Bellows volumetry	1114
393 K, 70000 kPa, Bellows volumetry	1119
393 K, 80000 kPa, Bellows volumetry	1124
393 K, 90000 kPa, Bellows volumetry	1128
393 K, 100000 kPa, Bellows volumetry	1133
393 K, 110000 kPa, Bellows volumetry	1137
393 K, 120000 kPa, Bellows volumetry	1141
393 K, 130000 kPa, Bellows volumetry	1145
393 K, 140000 kPa, Bellows volumetry	1149
393 K, 150000 kPa, Bellows volumetry	1153
393 K, 160000 kPa, Bellows volumetry	1157
393 K, 170000 kPa, Bellows volumetry	1160
393 K, 180000 kPa, Bellows volumetry	1164
393 K, 190000 kPa, Bellows volumetry	1167
393 K, 200000 kPa, Bellows volumetry	1171
413 K, 10000 kPa, Bellows volumetry	1074
413 K, 20000 kPa, Bellows volumetry	1080
413 K, 30000 kPa, Bellows volumetry	1086
413 K, 40000 kPa, Bellows volumetry	1092
413 K, 50000 kPa, Bellows volumetry	1098
413 K, 60000 kPa, Bellows volumetry	1103
413 K, 70000 kPa, Bellows volumetry	1108
413 K, 80000 kPa, Bellows volumetry	1113
413 K, 90000 kPa, Bellows volumetry	1118
413 K, 100000 kPa, Bellows volumetry	1122
413 K, 110000 kPa, Bellows volumetry	1126
413 K, 120000 kPa, Bellows volumetry	1131
413 K, 130000 kPa, Bellows volumetry	1135
413 K, 140000 kPa, Bellows volumetry	1139
413 K, 150000 kPa, Bellows volumetry	1143
413 K, 160000 kPa, Bellows volumetry	1147
413 K, 170000 kPa, Bellows volumetry	1150
413 K, 180000 kPa, Bellows volumetry	1154
413 K, 190000 kPa, Bellows volumetry	1158
413 K, 200000 kPa, Bellows volumetry	1161
432.9 K, 10000 kPa, Bellows volumetry	1062
432.9 K, 20000 kPa, Bellows volumetry	1068
432.9 K, 30000 kPa, Bellows volumetry	1075
432.9 K, 40000 kPa, Bellows volumetry	1081
432.9 K, 50000 kPa, Bellows volumetry	1086
432.9 K, 60000 kPa, Bellows volumetry	1092
432.9 K, 70000 kPa, Bellows volumetry	1097
432.9 K, 80000 kPa, Bellows volumetry	1102
432.9 K, 90000 kPa, Bellows volumetry	1107
432.9 K, 100000 kPa, Bellows volumetry	1112
432.9 K, 110000 kPa, Bellows volumetry	1116
432.9 K, 120000 kPa, Bellows volumetry	1121
432.9 K, 130000 kPa, Bellows volumetry	1125
432.9 K, 140000 kPa, Bellows volumetry	1129
432.9 K, 150000 kPa, Bellows volumetry	1133
432.9 K, 160000 kPa, Bellows volumetry	1137
432.9 K, 170000 kPa, Bellows volumetry	1141
432.9 K, 180000 kPa, Bellows volumetry	1145
432.9 K, 190000 kPa, Bellows volumetry	1148
432.9 K, 200000 kPa, Bellows volumetry	1152
452.6 K, 10000 kPa, Bellows volumetry	1049
452.6 K, 20000 kPa, Bellows volumetry	1056
452.6 K, 30000 kPa, Bellows volumetry	1063
452.6 K, 40000 kPa, Bellows volumetry	1069
452.6 K, 50000 kPa, Bellows volumetry	1075
452.6 K, 60000 kPa, Bellows volumetry	1081
452.6 K, 70000 kPa, Bellows volumetry	1086
452.6 K, 80000 kPa, Bellows volumetry	1092
452.6 K, 90000 kPa, Bellows volumetry	1097
452.6 K, 100000 kPa, Bellows volumetry	1101
452.6 K, 110000 kPa, Bellows volumetry	1106
452.6 K, 120000 kPa, Bellows volumetry	1111
452.6 K, 130000 kPa, Bellows volumetry	1115
452.6 K, 140000 kPa, Bellows volumetry	1119
452.6 K, 150000 kPa, Bellows volumetry	1123
452.6 K, 160000 kPa, Bellows volumetry	1128
452.6 K, 170000 kPa, Bellows volumetry	1131
452.6 K, 180000 kPa, Bellows volumetry	1135
452.6 K, 190000 kPa, Bellows volumetry	1139
452.6 K, 200000 kPa, Bellows volumetry	1143
472.5 K, 10000 kPa, Bellows volumetry	1037
472.5 K, 20000 kPa, Bellows volumetry	1045
472.5 K, 30000 kPa, Bellows volumetry	1052
472.5 K, 40000 kPa, Bellows volumetry	1058
472.5 K, 50000 kPa, Bellows volumetry	1064
472.5 K, 60000 kPa, Bellows volumetry	1070
472.5 K, 70000 kPa, Bellows volumetry	1076
472.5 K, 80000 kPa, Bellows volumetry	1081
472.5 K, 90000 kPa, Bellows volumetry	1087
472.5 K, 100000 kPa, Bellows volumetry	1092
472.5 K, 110000 kPa, Bellows volumetry	1096
472.5 K, 120000 kPa, Bellows volumetry	1101
472.5 K, 130000 kPa, Bellows volumetry	1105
472.5 K, 140000 kPa, Bellows volumetry	1110
472.5 K, 150000 kPa, Bellows volumetry	1114
472.5 K, 160000 kPa, Bellows volumetry	1118
472.5 K, 170000 kPa, Bellows volumetry	1122
472.5 K, 180000 kPa, Bellows volumetry	1126
472.5 K, 190000 kPa, Bellows volumetry	1130
472.5 K, 200000 kPa, Bellows volumetry	1134
